Results taken from ChEMBL document CHEMBL1151217, “New cytotoxic terpenoids from the wood of Vepris punctata from the Madagascar Rainforest” (J Nat Prod, 2004).
≈ marks a conversion by molar mass, not a printed value.

system: A2780; assay: Cytotoxicity against human A2780 cells; assay type: functional, cell-based

**Q.** With CC1(C)CC[C@]2(C)CC=C3[C@]4(C)CC[C@H]5C(C)(C)[C@@H](O)CC[C@]5(C)[C@H]4CC[C@@]3(C)[C@@H]2C1 [TARAXEROL] as the compound, how does the IC50 read?
**A.** Its IC50 is 21.8 µg/mL (≈ 51.1 µM).

**Q.** With CC(=O)O[C@H]1O[C@H]2C[C@@]13CC=C1[C@]4(C)[C@@H]5O[C@@H]5[C@H]5C(C)(C)[C@H](O)CC[C@]5(C)[C@H]4CC[C@@]1(C)[C@@H]3CC2(C)C as the compound, how does the IC50 read?
**A.** The IC50 was 21.5 µg/mL (≈ 41.9 µM).

**Q.** With CC1(C)CC[C@]2(C)CC=C3[C@]4(C)CC[C@H]5C(C)(C)[C@H](O)CC[C@]5(C)[C@H]4CC[C@@]3(C)[C@@H]2C1 as the compound, how does the IC50 read?
**A.** Its IC50 is 24.4 µg/mL (≈ 57.2 µM).

**Q.** C[C@H]1[C@H](C)CC[C@]2(C)CC[C@]3(C)C(=CC[C@@H]4[C@@]5(C)CC[C@H](O)C(C)(C)[C@@H]5CC[C@]43C)[C@H]12 was tested. Which IC50 did it give?
**A.** Its IC50 is 20.6 µg/mL (≈ 48.3 µM).

**Q.** How did the IC50 turn out when CC(C)=C1C/C=C(\C)CC/C=C(\C)CC1 was run?
**A.** Its IC50 is 6.4 µg/mL (≈ 31.3 µM).

**Q.** For CC1=C2C/C=C(\C)CC/C=C(\C)C[C@@H]2OC1=O [GLECHOMANOLIDE], which IC50 is on record?
**A.** Its IC50 is 5.3 µg/mL (≈ 22.8 µM).

**Q.** Which IC50 does the source give for CC1=C2C[C@H]3O[C@]3(C)CC[C@H]3O[C@@]3(C)C[C@@H]2OC1=O here?
**A.** Its IC50 is 3.8 µg/mL (≈ 14.4 µM).

**Q.** C=C[C@]1(C)C[C@@H]2OC(=O)C(C)=C2C[C@H]1C(=C)C [ISOGERMAFURENOLIDE] was tested. Which IC50 did it give?
**A.** Its IC50 is 4.5 µg/mL (≈ 19.4 µM).

**Q.** For C=C(C)[C@@H]1CC[C@]2(C)CC[C@]3(C)[C@H](CC[C@@H]4[C@@]5(C)CC[C@H](O)C(C)(C)[C@@H]5CC[C@]43C)[C@@H]12 [LUPEOL], which IC50 is on record?
**A.** The IC50 was 26.4 µg/mL (≈ 61.9 µM).

**Q.** For C=C(C)[C@@H]1CC[C@]2(C)CC[C@]3(C)[C@H](CC[C@@H]4[C@@]5(C)CC[C@H](OC(C)=O)C(C)(C)[C@@H]5CC[C@]43C)[C@@H]12 [LUPENYL ACETATE], which IC50 is on record?
**A.** The IC50 was 22.6 µg/mL.
